Test results reported in patent publication US20240158448A1, “MULTIVALENT NANO-'SELF' PEPTIDES AND USES THEREOF” (THE TRUSTEES OF THE UNIVERSITY OF PENNSYLVANIA, priority 2021, published 2024).
Entries after “also recorded” stand apart in the source; their conditions may differ. Non-standard residues stand in square brackets, D forms with d. Primed or numbered codes have the meaning given here. No end group written: not given here. PEG5′ = linker of 5 PEG units between residues

Assays:
[1] = tested on: human macrophages (opsonized K562 cancer cells); test: Phagocytosis of opsonized K562 erythroleukemia cells by human macrophages; assay type: cell-based
Protocol: In vitro phagocytosis assay. Fresh human RBCs were washed twice with 50 mM EDTA (Thermo Fischer) in PBS (Gibco) then twice with 5% FBS in PBS. RBCs were opsonized with 20 μg/mL rabbit anti-human RBC antibody (Rockland) in 5% FBS for 1 hour at RT with shaking. For CD47 blocked RBCs, 5 μg/mL of mouse anti-human CD47 (B6H12; BD Biosciences) were added. Thereafter, RBCs were washed with PBS three times and stained with PKH26 dye (1:800 dilution in PBS; Sigma) for 1 hour at RT with shaking in the dark. RBCs were washed and resuspended in PBS.
THP-1 monocytes were PMA differentiated in RPMI for 48 hours. Macrophages were then washed with RPMI media three times. For SIRPα blocked THP-1 macrophages, 20 nM, 1 μM or 50 μM of the nano—Self peptides were incubated with the THP-1 macrophages for 1 hour at 37 ° C., 5% CO2 and 95% humidity. Those THP-Is were then washed with RPMI three times.
CO2 and 95% humidity. Macrophages were then washed with RPMI three times. Adherent and uninternalized RBCs were lysed with water for 30 seconds followed by immediate replacement with RPMI media. In order to distinguish remaining adherent RBCs from internalized RBCs, opsonized RBCs were stained with AlexaFluor 647 donkey anti-rabbit (binds to rabbit polyclonal opsonin on RBC; Invitrogen) IgG (1:1000) while unopsonized, CD47 blocked RBCs were stained with AlexaFluor 647 donkey anti-mouse (binds to mouse monoclonal anti-CD47 on RBCs; Invitrogen) IgG (1:1000) for 30 minutes. After washing, macrophages were fixed with 4% formaldehyde for 15 minutes at RT, washed with PBS, stained with 1 μg/mL Hoechst 33342, and then washed with PBS again. Fluorescence imaging was performed as described elsewhere herein and quantification was done using ImageJ. At least 200 cells were analyzed and experiments were repeated at least three times.
The anti-RBC successfully opsonized and triggered phagocytosis of K562 cells by macrophages (FIGS. 2A, 2F and 2E). […] Interaction of the nS peptides with K562 cells is likely minimal due to the relative lack of SIRPα expression. […] For both opsonized RBCs and opsonized K562s (FIGS. 2D, 2F), the hyperphagocytosis that is achieved with soluble F- and V-nS peptides matches the recently measured increases for disruption of both (i) the trans interactions between CD47 on a target and macrophage SIRPα and also, importantly, (ii) the cis interactions between CD47 and SIRPα on the same macrophage (FIG. 2G-left). Expression profiling of macrophages confirms these cells generally express CD47 at roughly similar levels to other cell types (FIG. 15). […] A preliminary conclusion is that nS-FF and the other substituted peptides, which were designed to bind SIRPα, inhibit both the cis and trans interactions between SIRPα and CD47 ([…]).

SIRPα = biological target: T1, SIRPα (Homo sapiens, UniProt P78324); test: CD47-Fc Inhibition Assay on THP-1 macrophages; assay type: binding; conditions: 1 μM or 50 μM peptide, 2 μg/mL CD47-Fc, anti-Fc fluorescence
T1 construct: THP-1 monocytes were PMA differentiated in RPMI for 48 h; endogenous in cells; host or cells: PMA-differentiated THP-1 macrophages
Protocol: CD47-Fc Inhibition Assay. THP-1 monocytes were PMA differentiated in RPMI for 48 h. The macrophages were washed with RPMI media and then incubated with 1 μM or 50 μM of nano- Self peptides for 1 h at 37° C., 5% CO2, and 95% humidity. After washing, the macrophages were incubated with Human Trustain FcX Fc receptor blocking solution (Biolegend) for 10 min at RT and then incubated with 2 μg/mL CD47-Fc fusion protein (ACRO Biosystems) for 1 h at 37° C., 5% CO2, and 95% humidity. As a negative control, B6H12 was pre-mixed with CD47-Fc at 4° C. on a rotator for 1 h. The macrophages were then washed and incubated with 0.5 μg/mL goat anti-human IgG Fc DyLight 488 (Thermo Fischer) for 1 h at 37° C., 5% CO2, and 95% humidity. Finally, the macrophages were washed, fixed, Hoechst 33342 stained, and imaged as described above.
To determine whether the nS peptides bind to SIRPα, nS-FF and nS-F4 were used as soluble competitive inhibitors of saturable CD47-Fc fusion protein binding to macrophages (FIG. 20). Addition of multivalent nS peptides was followed by Fc-receptor blockade to minimize Fc-driven binding of construct. Afterwards, CD47-Fc was added and then finally anti-Fc fluorescence imaging was performed (FIG. 20, left).

In the case of “(VTELFREG-PEG5)2-K (VTELFREG[PEG5′]K[PEG5′]GERFLETV; not fully specified; also: bivalent lysine core) [nS-FF, bivalent nS-F linked through PEG5 linkers to a C-terminal Lys]”, the “increase of phagocytosis relative to opsonized and CD47 blocked K562 cells” value ([1]; saturating peptide) is reported as “nearly doubled; also recorded: about two-fold”, the “macrophages engulfing opsonized K562 cells at saturation” value ([1]; saturation) is reported as about 40% and the “level of inhibition of CD47-Fc binding” value (SIRPα) is reported as “as inhibitory as anti-CD47”.
